Tests used:
[1] = test system: LCC2 p26-27 (MCF-7LCC2); assay: proliferation of mammary epithelial cells, IC50 after 6 days; format: cell-based, human; conditions: 6 days of treatment
Protocol: (§1) Another study was also performed in order to determine the effect of SR 31747 on the in vitro and in vivo growth of mammary and prostate epithelial tumour cells.
(§2) The study consisted in evaluating the potential antitumour activity of SR 31747 on the growth of a variety of cancerous breast epithelial lines. The study is carried out in vitro on cell cultures, as well as in vivo after inoculation of tumoral mammary lines in "nude" athymic mice.
(§3) The cell lines which were used are as follows:
(§4) The hormone-sensitive MCF-7 line originates from a pleural effusion of a breast adenocarcinoma. The antioestrogen-resistant MCF-7LY2 cells were obtained from the MCF-7LCC1 and MCF-7LCC2 lines were developed in nude mice, after inoculation of the MCF-7 cells. The two lines are oestrogen-independent. The MCF-7CC2 cells are also antioestrogen-resistant. The MCF-7AZTD5 line is derived from the MCF-7 line after stable transfection with the H-ras oncogene. The MCF-7AZTD5 cells are antioestrogen-resistant in vitro. All of these lines are maintained on DMEM/F12 (1/1, vol/vol) containing 10% decomplemented foetal calf serum and 16 ng/ml of human insulin. The MCF-7LCC2 line is cultured in the permanent presence of 10^-7 M hydroxytamoxifen. The MDA-MB231 tumoral mammary epithelial cells are oestrogen- and antioestrogen-insensitive. They are cultured in L15 medium supplemented with 10% FCS, 1% essential amino acids and 10 μg/ml of human insulin.
(§5) All the lines are maintained at 37° C. in a humid air/CO2 (95%/5%) atmosphere, except for the MDA-MB231 cells which are cultured in the absence of CO2. THe cell lines are checked regularly free of mycoplasms.
(§6) Table B--Effect of SR 31747 on the proliferation of mammary epithelial cells. Determination of the IC50 after 6 days of treatment--medium changed every 48 hours

[2] = test system: MDA MB231 p131; assay: as above; format: cell-based; conditions: 6 days of treatment
Protocol: as §1, §2, §3, §4, §5, §6

[3] = test system: MCF7 22HTB RPMI p + 4; assay: as above; format: cell-based; conditions: Homo sapiens, 144 h; MCF7 22HTB RPMI p + 4, 0.1% FCS, 6 days of treatment
Protocol: as §1, §2, §3, §4, §5, §6

[4] = test system: MCF7 p23-25; assay: as above; format: cell-based; conditions: Homo sapiens, MCF7, 144 h, 6 days of treatment
Protocol: as §1, §2, §3, §4, §5, §6

[5] = test system: MCF7 AZ; assay: as above; format: cell-based; conditions: Homo sapiens, 144 h, 10% FCS, 6 days of treatment
Protocol: as §1, §2, §3, §4, §5, §6

[6] = test system: LCC1 p23-24 (MCF-7LCC1); assay: as above; format: cell-based; conditions: Homo sapiens, Epithelial cell, 144 h, 6 days of treatment
Protocol: as §1, §2, §3, §4, §5, §6

[7] = test system: LY2 p22-23 (MCF-7LY2); assay: as above; format: cell-based; conditions: Homo sapiens, Epithelial cell, 144 h; LY2 p22-23, 10% FCS, 6 days of treatment
Protocol: as §1, §2, §3, §4, §5, §6

[8] = test system: MCF7 AZTD5; assay: as above; format: cell-based; conditions: Homo sapiens, MCF7, 144 h, 6 days of treatment
Protocol: as §1, §2, §3, §4, §5, §6

[9] = test system: MCF7 RPMI p6-7; assay: as above; format: cell-based; conditions: Homo sapiens, MCF7, 144 h, 6 days of treatment
Protocol: as §1, §2, §3, §4, §5, §6

[10] = test system: human mammary carcinoma MCF-7; assay: MTT colorimetric proliferation test, 5 days; format: cell-based; conditions: MCF7, 120 h, read-out: percentage of cell proliferation relative to the untreated control taken as 100%
Protocol: Among other cells used, the following lines were routinely cultured in RPMI medium supplemented with 10% foetal calf serum (FCS):
human mammary carcinoma MCF-7
The antitumour activity is measured according to the colorimetry method using MTT, 3-(4,5-dimethylthiazole-2,5-diphenyltetrazolium) bromide as described by Mosmann T., Journ. of Im. Methods; 1983, 65, 55.
This colorimetric assay makes it possible to measure quantitatively the antitumour activity of a solution containing a compound used according to the invention.
According to the procedure used, the suspended cells (such as the myeloma cells) are inoculated at 2×10^3 cells/ml in 1 ml wells in defined medium. The adherent cells (such as the MCF-7 cells) are inoculated at 5×10^4 cells/ml in 1 ml wells in RPMI medium+0.5% FCS overnight. The next day, the cell carpet is washed twice and replaced by the defined medium.
The defined medium corresponds to: RPMI+10 μg/ml insulin+10 μg/ml human transferrin.
In order to carry out this test, cells are maintained in the presence of the solution containing a compound used according to the invention for 5 days, and the MTT is then added to the culture medium.
The 5 day period which was selected corresponds to the optimum time for the activity. After culturing for 5 days, the proliferation of the cells is measured by the test described above. The optical density at 570 nm is measured. A blue coloration develops in the wells where the cells are still alive. The intensity of the coloration is proportional to the quantity of live cells.

[11] = test system: mammary tumoral epithelial cells; assay: proliferation of tumoral breast epithelial lines, summary statements; format: cell-based
Protocol: as §1, §2, §3
as §4, with “They are cultured in L15 medium supplemented with 10% FCS, 1% essential amino acids and 10 μg/ml of human insulin.” left out

IC50 ([1]; Homo sapiens, LCC2, 144 h, LCC2 p26-27, 0.1 DCC): 2 nM
IC50 ([1]; Homo sapiens, LCC2, 144 h, LCC2 p26-27, 5% DCC): 400 nM
IC50 ([1]; LCC2 p26-27, 5% DCC): 300 nM
IC50 [3]: 2 nM
IC50 ([4]; MCF7 p23-25, 0.1% FCS): 2 nM
IC50 ([4]; MCF7 p23-25, 0.5% FCS): 100 nM
IC50 [5]: > 1000 nM
IC50 ([6]; LCC1 p23-24, 0.1% FCS): 2 nM
IC50 ([6]; LCC1 p23-24, 5% FCS): 1000 nM
IC50 [7]: > 100 nM
IC50 ([8]; MCF7 AZTD5, 0.1% FCS): 0.2 nM
IC50 ([8]; MCF7 AZTD5, 10% FCS): 600 nM
IC50 ([9]; MCF7 RPMI p6-7, 0% FCS): 3 nM
IC50 ([9]; MCF7 RPMI p6-7, 0.1% FCS): 7 nM
Structure (SMILES): CCN(C/C=C\c1ccc(C2CCCCC2)c(Cl)c1)C1CCCCC1 [SR 31747, cis-N-Cyclohexyl-N-ethyl [3-(3-chloro-4-cyclo-hexylphenyl)allyl]amine]
IC50 ([2]; Homo sapiens, MDA-MB-231, 144 h, MDA MB231 p131, 0.1% FCS): 2 nM
IC50 ([2]; Homo sapiens, MDA-MB-231, 144 h, MDA MB231 p131, 10% FCS): 800 nM
IC50 ([2]; MDA MB231 p131, 10% FCS): 400 nM
activity at 10 pM ([10]; MCF-7, 10 pM): 100%
activity at 0.0001 µM ([10]; MCF-7, 100 pM): 100%
activity at 0.001 µM ([10]; MCF-7, 1 nM): 83%
activity at 0.01 µM ([10]; MCF-7, 10 nM): 75%
activity at 0.1 µM ([10]; MCF-7, 100 nM): 58%
activity at 1 µM ([10]; MCF-7, 1 μM): 34%
activity at 10 µM ([10]; MCF-7, 10 μM): 5%
inhibition of cell proliferation at high concentration (cytotoxic effects) ([11]; 10^-6 M and occasionally 10^-7 M SR 31747): virtually total inhibitions of the cell proliferation
action on the proliferation of tumor epithelial lines ([11]; reduced concentrations of saline (serum)): exerts an inhibitory action on the proliferation of all the tumor epithelial lines tested
